The text below walks through data of publication PMC4878759 (PLoS ONE, 2016).

One test deals with T1, mouse ANO2 (Mus musculus, UniProt Q8CFW1).
T1 sequence (Q8CFW1 1-1002): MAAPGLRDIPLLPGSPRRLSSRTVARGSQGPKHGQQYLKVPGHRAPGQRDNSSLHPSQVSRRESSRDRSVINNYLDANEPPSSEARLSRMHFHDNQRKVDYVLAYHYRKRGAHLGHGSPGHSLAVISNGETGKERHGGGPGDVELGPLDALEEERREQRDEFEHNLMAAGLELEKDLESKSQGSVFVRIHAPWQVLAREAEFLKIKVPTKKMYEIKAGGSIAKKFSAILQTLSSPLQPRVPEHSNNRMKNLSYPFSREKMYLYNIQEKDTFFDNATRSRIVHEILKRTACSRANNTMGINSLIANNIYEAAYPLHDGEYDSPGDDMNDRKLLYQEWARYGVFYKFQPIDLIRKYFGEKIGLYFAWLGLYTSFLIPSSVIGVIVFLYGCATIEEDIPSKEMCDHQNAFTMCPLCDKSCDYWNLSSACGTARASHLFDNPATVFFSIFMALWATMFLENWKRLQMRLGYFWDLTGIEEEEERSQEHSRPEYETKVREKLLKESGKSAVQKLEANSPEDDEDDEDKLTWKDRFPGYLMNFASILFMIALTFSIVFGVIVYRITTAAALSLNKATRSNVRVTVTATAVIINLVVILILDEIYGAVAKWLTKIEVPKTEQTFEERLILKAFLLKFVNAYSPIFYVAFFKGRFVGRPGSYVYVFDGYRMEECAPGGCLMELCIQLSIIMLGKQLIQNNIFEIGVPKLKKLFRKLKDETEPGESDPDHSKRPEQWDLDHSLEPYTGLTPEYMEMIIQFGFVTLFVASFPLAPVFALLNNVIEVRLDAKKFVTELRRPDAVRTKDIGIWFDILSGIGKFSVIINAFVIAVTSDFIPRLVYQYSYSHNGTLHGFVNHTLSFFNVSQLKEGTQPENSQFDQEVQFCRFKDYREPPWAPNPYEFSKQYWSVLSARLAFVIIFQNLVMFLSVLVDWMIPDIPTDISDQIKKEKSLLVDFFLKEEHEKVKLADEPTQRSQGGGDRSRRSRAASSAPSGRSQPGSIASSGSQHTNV
As to the kind of experiment: YFP quenching assay in FRT cells expressing ANO2. Format: cell-based. As to conditions: dose dependent, 100 μM ATP.

Test [1] deals with VRAC. As to the kind of experiment: VRAC activity by YFP quenching in LN215 cells. Format: cell-based, human. The conditions noted are these: 10 μM. Here is the method: LN215 cells, a human glioma cell line, were stably transfected with YFP-F46L/H148Q/I152L, a halide sensor YFP. After the cells were incubated on 96well black plates (Corning Inc., Corning, NY) for 48 hours, each well of the 96-well plate was washed 3 times in PBS (200 μL/wash), and the wells were filled with 50 μl/well isotonic solution (in mM): 140 NaCl, 5 KCl, 20 HEPES (310 mOsm/kg; pH 7.4 with NaOH). In each well, VRAC expressed on the cells were stimulated with addition of 50 μl of hypotonic solutions (in mM): 5 KCl, 20 HEPES, 90 mannitol (120 mOsm/kg). Test compounds (1 μL) were added to each well in a dose dependent manner. After 5 min, 96-well plates were transferred to a plate reader for fluorescence assay. Each well was assayed individually for VRAC-mediated I^- influx by recording fluorescence continuously (400 ms per point) for 7.6 s. YFP fluorescence was recorded 0.4 s for baseline, then 100 μL of 140 mM I^- solution was added at 0.4 s to see the change in fluorescence. Initial iodide influx rate was determined from the initial slope of fluorescence decrease, by nonlinear regression, following infusion of iodide.

The test system of test [2] is ANO1. On the set-up: method as in PMID 25739000. As to conditions: spontaneously hypertensive rats (SHRs) ref [8]; cited from earlier work.
Test [3] addresses T2, ANO1 (Homo sapiens, UniProt Q5XXA6, DEL476-501).
T2 construct: expressed in transfected cells
T2 sequence (Q5XXA6 with tags, fused parts or gaps isoform Q5XXA6-5 DEL539-564): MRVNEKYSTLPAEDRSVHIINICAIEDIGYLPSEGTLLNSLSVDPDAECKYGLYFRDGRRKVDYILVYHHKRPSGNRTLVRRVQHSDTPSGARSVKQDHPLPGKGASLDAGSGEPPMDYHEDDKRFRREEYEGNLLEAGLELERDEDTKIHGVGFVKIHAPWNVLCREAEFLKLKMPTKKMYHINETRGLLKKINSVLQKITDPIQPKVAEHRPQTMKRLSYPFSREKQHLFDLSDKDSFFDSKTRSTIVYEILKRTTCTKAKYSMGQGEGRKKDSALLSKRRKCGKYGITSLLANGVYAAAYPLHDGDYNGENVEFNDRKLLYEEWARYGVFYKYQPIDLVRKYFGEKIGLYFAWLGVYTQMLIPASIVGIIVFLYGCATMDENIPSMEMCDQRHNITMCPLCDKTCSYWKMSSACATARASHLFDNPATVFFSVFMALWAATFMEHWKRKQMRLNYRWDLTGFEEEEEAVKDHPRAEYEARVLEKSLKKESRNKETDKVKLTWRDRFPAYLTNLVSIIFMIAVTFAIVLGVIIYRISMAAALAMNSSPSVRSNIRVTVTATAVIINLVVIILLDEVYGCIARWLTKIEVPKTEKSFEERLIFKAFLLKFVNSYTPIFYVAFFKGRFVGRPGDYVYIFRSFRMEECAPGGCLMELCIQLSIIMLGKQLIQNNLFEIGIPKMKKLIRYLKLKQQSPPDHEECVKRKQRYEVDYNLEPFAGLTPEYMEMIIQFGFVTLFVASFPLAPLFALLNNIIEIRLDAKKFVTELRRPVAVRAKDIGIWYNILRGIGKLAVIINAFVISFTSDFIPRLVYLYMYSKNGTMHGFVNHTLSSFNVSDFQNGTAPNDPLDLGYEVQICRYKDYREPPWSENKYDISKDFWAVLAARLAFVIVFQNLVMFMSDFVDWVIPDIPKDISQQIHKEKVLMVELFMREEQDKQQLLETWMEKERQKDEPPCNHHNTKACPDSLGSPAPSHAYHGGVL
Put plainly: Apical membrane current in ANO1 expressing FRT cells. It is filed as cell-based. As to conditions: 100 μM ATP. Here is the method:
(§1) Snapwell inserts containing ANO1, ANO2 or CFTR expressing FRT cells, ENaC expressing T-84 cells or the human primary airway epithelial cells were mounted in Ussing chambers (Physiologic Instruments, San Diego, CA). To induce transcriptional ENaC induction, the polarized T84 cells were incubated with 2 mM sodium butyrate for 2 days. To increase the functional expression of ANO1, the human airway epithelial cells were treated with IL-4 (10 ng/mL) for 2 days. For T-84 and the human primary airway epithelial cells, the apical and basolateral bath were filled with HCO3^—buffered solution containing (in mM): 120 NaCl, 5 KCl, 1 MgCl2, 1 CaCl2, 10 D-glucose, 2.5 HEPES, and 25 NaHCO3 (pH 7.4). For FRT cells, the basolateral bath was filled with the HCO3^—buffered solution and the apical bath was filled with a half-Cl^- solution. In the half-Cl^- solution 65 mM NaCl in the HCO3^—buffered solution was replaced by Na-gluconate. […] ATP was applied to the apical bath solution to induce intracellular calcium increase. […] Apical membrane currents were measured with an EVC4000 Multi-Channel V/I Clamp (World Precision Instruments, Sarasota, FL) and PowerLab 4/35 (AD Instruments, Castle Hill, Australia). Data were analyzed using Labchart Pro 7 (AD Instruments). The sampling rate was 4 Hz.

Another test concerns the target T3, ANO2 (Mus musculus, UniProt Q8CFW1).
T3 sequence (Q8CFW1 1-1002): T1 sequence (Q8CFW1 1-1002)
Put plainly: Apical membrane current in FRT-ANO2 cells. It is filed as cell-based. As to conditions: 10 μM pretreatment. Here is the method:
as §1
ANO1 belongs to anoctamin gene family which contains ten members presenting eight-pass transmembrane segments with cytosolic N- and C-terminals. ANO2 shares a high level of amino acid homology to ANO1 (~60%) and, ANO1 and ANO2 are confirmed CaCCs. However, the roles of other family members (ANO3-ANO10) remain poorly understood and controversial. […] We investigated the effect of these inhibitors on ANO2-mediated apical membrane current in FRT-ANO2 cells.

The subject of test [4] is VRAC. Details: method as in PMID 24965069, PMID 25163766, PMID 26438191. The conditions noted are these: ref [26]–[28]; cited from earlier work.
Test [5] relates to ANO1. Details: method as in PMID 25848051. The conditions noted are these: mice ref [14]; cited from earlier work.
The target of a further test is T4, CaCCs in NHNE cells (Homo sapiens, UniProt Q5XXA6).
T4 sequence (Q5XXA6 1-986): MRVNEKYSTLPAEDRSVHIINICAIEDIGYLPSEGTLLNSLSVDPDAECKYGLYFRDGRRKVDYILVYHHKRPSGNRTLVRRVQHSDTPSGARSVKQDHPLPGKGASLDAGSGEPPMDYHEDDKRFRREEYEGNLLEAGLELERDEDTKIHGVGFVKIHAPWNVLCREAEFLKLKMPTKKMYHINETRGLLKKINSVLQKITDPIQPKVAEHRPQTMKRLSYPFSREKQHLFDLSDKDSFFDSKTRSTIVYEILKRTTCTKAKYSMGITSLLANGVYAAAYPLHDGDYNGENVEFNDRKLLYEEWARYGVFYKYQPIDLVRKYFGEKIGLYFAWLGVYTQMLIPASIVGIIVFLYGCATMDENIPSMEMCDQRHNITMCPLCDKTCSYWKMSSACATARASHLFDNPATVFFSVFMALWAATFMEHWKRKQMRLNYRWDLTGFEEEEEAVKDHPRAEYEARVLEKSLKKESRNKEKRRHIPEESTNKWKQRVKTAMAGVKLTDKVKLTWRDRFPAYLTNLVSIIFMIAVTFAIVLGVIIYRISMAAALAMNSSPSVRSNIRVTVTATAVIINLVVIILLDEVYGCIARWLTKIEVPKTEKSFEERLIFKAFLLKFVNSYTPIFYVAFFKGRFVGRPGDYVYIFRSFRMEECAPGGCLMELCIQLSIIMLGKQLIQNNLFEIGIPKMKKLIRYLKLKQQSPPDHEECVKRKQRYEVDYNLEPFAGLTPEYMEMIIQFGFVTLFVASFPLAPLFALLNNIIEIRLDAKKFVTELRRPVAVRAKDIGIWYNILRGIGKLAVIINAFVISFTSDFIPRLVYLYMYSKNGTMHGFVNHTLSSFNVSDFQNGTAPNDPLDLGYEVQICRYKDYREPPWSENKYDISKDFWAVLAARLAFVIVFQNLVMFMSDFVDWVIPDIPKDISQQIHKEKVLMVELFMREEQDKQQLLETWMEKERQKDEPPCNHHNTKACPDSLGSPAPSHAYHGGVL
Put plainly: Short-circuit current of CaCC in IL-4 treated NHNE cells. As to conditions: 100 μM. Format: cell-based.

Procedure for CaCCs in NHNE cells: Snapwell inserts containing ANO1, ANO2 or CFTR expressing FRT cells, ENaC expressing T-84 cells or the human primary airway epithelial cells were mounted in Ussing chambers (Physiologic Instruments, San Diego, CA). To induce transcriptional ENaC induction, the polarized T84 cells were incubated with 2 mM sodium butyrate for 2 days. To increase the functional expression of ANO1, the human airway epithelial cells were treated with IL-4 (10 ng/mL) for 2 days. For T-84 and the human primary airway epithelial cells, the apical and basolateral bath were filled with HCO3^—buffered solution containing (in mM): 120 NaCl, 5 KCl, 1 MgCl2, 1 CaCl2, 10 D-glucose, 2.5 HEPES, and 25 NaHCO3 (pH 7.4). For FRT cells, the basolateral bath was filled with the HCO3^—buffered solution and the apical bath was filled with a half-Cl^- solution. In the half-Cl^- solution 65 mM NaCl in the HCO3^—buffered solution was replaced by Na-gluconate. […] ATP was applied to the apical bath solution to induce intracellular calcium increase. […] Apical membrane currents were measured with an EVC4000 Multi-Channel V/I Clamp (World Precision Instruments, Sarasota, FL) and PowerLab 4/35 (AD Instruments, Castle Hill, Australia). Data were analyzed using Labchart Pro 7 (AD Instruments). The sampling rate was 4 Hz. […]

Regarding `CCc1c(C)nc(SCC(=O)Nc2nc(-c3ccc(OC)cc3)cs2)[nH]c1=O` [Ani T16Ainh-A01], at mouse ANO2, the “effect on ANO2 activity” value is reported as “potently blocked”. Moreover, the “inhibition of VRAC activity” value in the test on VRAC [1] stood at 71.2 ± 1.6%. Further, the “effect on BP” value in the test on ANO1 [2] is listed as “significantly reduced”. Besides, on ANO1 [3] (10 μM pretreatment), the “inhibition of ATP-induced ANO1 current” value was “almost complete inhibition”. For the same compound, the IC50 on ANO1 [3] (apical membrane current, 20 min pretreatment, read-out: IC50 of ATP-induced ANO1 activation) worked out at 1.39 ± 0.59 µM. The “effect on ATP-induced ANO2 current” value at ANO2 is reported as “strongly blocked”. In the test with VRAC [4], the “block of VRAC activity” value is “potently blocked”. Moreover, the “effect on capsaicin-evoked pain-related behaviors” value with ANO1 [5] is “significantly reduced”.
As to tannic acid, at CaCCs in NHNE cells, the “effect on remaining CaCCs currents” value is “abolished”.

The term IC50 denotes the concentration that gives 50% inhibition.
